Reference: patent US6300311A, “Regulation of vertebrate ovarian maturation and function using growth factors” (Texas Tech University, priority 1998, dated 2001)
Several values for one entry are separate records, joined by “and”; a condition that tells them apart may be missing. Identical values can stand only once. Entries after “also recorded” stand apart in the source; their conditions may differ.

How the values were obtained:
[1] = system: young female pigs; assay: In vivo rec-pEGF by subcutaneous osmotic pumps, Group 2 pigs, body and organ weights at necropsy
[2] = system: pig ZP proteins in isolated primordial follicles; assay: Isolated pig primordial follicles cultured with EGF, ZP proteins by protein dot blot; format: cell-based; conditions: EGF 50 ng/ml, 6 days
Description: FIG. 16 graphically presents the results of studying the effect of EGP on ZP expression in isolated primordial follicles. As in the previous experiment, ovaries were collected from immature pigs at 3 to 5 weeks of age. In this case the ovaries were minced and the follicles enzymatically separated from the connective tissues and isolated. The population of small primordial follicles were collected and grown in cell culture well inserts. These were cultured for six days in medium alone as control or in medium supplemented with 50 nanograms per ml of EGF. After 6 days of culture the follicles were collected and proteins isolated and solubilized. The amount of total zona pellucida protein in these samples was determined using an antibody developed in guinea pigs against total zona pellucida proteins. The amount of porcine zona pellucida proteins in these samples were determined by dot blot analysis and quantified by optical density. The relative amount of zona pellucida protein is graphed in FIG. 16 for each sample (control and EGF treated 50 ng/ml). This was done for 3 replicates. […] This is consistent with the hypothesis that EGF can stimulate activation of dormant primordial follicles as indicated by the expression of zona pellucida genes.

[3] = system: mature rats; conditions: intravenously infused for a four-week period; cited from earlier work
[4] = system: R55 mRNA; assay: Rabbit ovary explant culture treated with EGF, R55 mRNA by Northern blot; format: cell-based; conditions: EGF 50 ng/ml
Text: A method to culture pieces of ovaries from 14 d.pp. rabbits was developed, modeled after techniques used for ovaries from neonatal mice and bovine embryos. Tissue pieces (1-2 mm^3) from 14 d.pp. rabbit ovaries containing only primordial follicles were placed in cell culture inserts with 3.0 mm pores and cultured in 24-well plates with 300 microliters medium (50-50 blend of (a) F-12 Nutrient Mixture (Ham)(1×), liquid contains L-glutamine, and (b) Medium 199 (1×), liquid contains Earle's modified salts, 1.250 mg/L sodium bicarbonate, and L-glutamine.
Cultures were treated with mouse EGF (50 ng/ml) and analyzed for the level of expression of R55 mRNA. Treatment with EGF produced a 3-fold increase in amount of R55 mRNA (normalized to 28 S) as compared to controls incubated in medium alone (FIG. 3).
Ovaries were collected from 2 week old rabbits and the tissue mince into small pieces (-1 mm^3). These ovarian explants were then cultured for 6 days in the presence or absence of EGF (50 ng/ml). Total RNA was isolated and the relative amount of R55mRNA measured by Northern blot analysis. The result of 3 experiments were averaged and graphed. The level of P55 expression in the controls was defined as one. The level of expression of the epidermal growth factor treated samples was approximately 3 fold of that seen in the controls. […] This effect is due to an increase in the number of follicles being activated.

[5] = system: pig ZP proteins; assay: Pig ovarian explant culture with EGF, ZP proteins by protein dot blot; format: cell-based; conditions: EGF 50 ng/ml, 6 days
Description: For this first experiment ovaries were collected form pigs at three to five weeks of age at which the pig ovaries are very immature. The ovaries were then minced into small pieces and grown in ovarian explant cultures with or without EGF (similar to what we have done with the rabbit ovaries). After 6 days of culture the tissue was collected and in this case proteins from these samples were isolated and solubilized. The amount of total zona pellucida protein in these samples was determined using an antibody we developed in guinea pigs against total zona pellucida proteins. The amount of porcine zona pellucida proteins in these samples were determined by dot blot analysis and quantified by optical density. The relative amount of zona pellucida protein is graphed for each sample (control and EGF treated 50 ng/ml). This was done for 3 replicates.

[6] = system: FSH receptors; assay: Expression of FSH receptors in granulosa cells from antral pig follicles; format: cell-based; conditions: EGF 50 ng/ml
[7] = system: neonatal mouse ovaries; conditions: neonatal mouse ovaries cultured in vitro; cited from earlier work
[8] = system: granulosa cells from primary pig follicles; assay: DNA synthesis in granulosa cells from primary pig follicles; format: cell-based; conditions: EGF 50 ng/ml
[9] = system: mini-pigs; conditions: minipig, in vivo; cited from earlier work
[10] = system: antiserum to recombinant porcine EGF; conditions: radioimmunoassay with antiserum to recombinant porcine EGF; cited from earlier work
[11] = system: young female pigs; assay: In vivo rec-pEGF by subcutaneous osmotic pumps, Group 1 pigs, histological evaluation of ovarian follicles; design: species or system pig
Description: Finally, FIG. 23 is a graph which confirms that in vivo administration of rec-pEGF to the Group 1 pigs, above, starting at 30 d.pp. and administered for fourteen consecutive days at a 540 μg/day dose by placement of subcutaneous osmotic pumps in each pig. Ovaries from a sub-set of Group 1 pigs were examined at 70 d.pp. when the first cohort of growing follicles is normally expected to be present. […] Data was obtained by counting the number of hematoxylin/eosin stained follicles in a counting frame (960×1400 μm), and only sections through the center of a follicle with the germinal vesicle present were used for the evaluation. Growing follicles were identified based upon the presence of at least one cuboidal layer of granulosa cells surrounding the oocyte.

[12] = system: Swiss 3T3 fibroblast cells; assay: 3T3 fibroblast proliferation assay ([H3]-thymidine incorporation); format: cell-based; conditions: quiescent Swiss 3T3 cells
Description: In FIG. 21, the bioactivity of EGF was tested in a 3T3 fibroblast proliferation assay. EGF was added to quiescent Swiss 3T3 fibroblast cells and stimulation of fibroblast proliferation was measured by [H^3 ]-thymidine incorporation as an indicator of DNA synthesis.

[13] = system: young female pigs; conditions: pig, in vivo
[14] = average of ten largest follicles, 540 μg/day for fourteen days

## EGF: 53-residue polypeptide that is mitogenic for a variety of cell types both in vivo and in vitro
[1]; Group 2, N = 3
  Avg. Daily Gain: 0.32 ± 0.06 kg/day
  Day 14 Weight: 4.6 ± 0.24 kg
  Day 70 Weight: 22.7 ± 3.40 kg
[2]; follicles of pigs 3 to 5 weeks of age, single replicates
  Optical density of ZP proteins from cultured primordial follicles: 1815 and 371 and 1697
[2]; versus medium alone
  expression of zona pellucida proteins in primordial follicles (in words): significant increase
[2]; average of 3 replicates
  Optical density of ZP proteins from cultured primordial follicles, Avg. ZP: 1294
[3]
  number of corpora lutea (CL): increase in the number of corpora lutea
  ovarian weights: ovarian weights were increased
[4]; 6 days, ovarian explants of 2 week old rabbits, control = 1, single experiments
  ratio of R55 to 28S optical densities from Northern blots: 2.87 and 3.09 and 3.28
[4]; 6 days, average of 3 experiments, control = 1
  ratio of R55 to 28S optical densities from Northern blots, average: 3.08
[4]; Northern blot
  expression of R55 in primordial rabbit ovarian follicles (in words): increased expression of R55; also recorded: significant increases in expression of R55
[5]; ovaries of pigs 3 to 5 weeks of age, single replicates
  Optical density of ZP proteins from ovarian explant cultures: 6355 and 6086 and 7193
[5]; versus control
  increase in the amount of zona pellucida protein in EGF treated ovarian explants: approximately a two fold increase
[5]; average of 3 replicates
  Optical density of ZP proteins from ovarian explant cultures, Avg. ZP: 6545
[6]
  expression of FSH receptors in granulosa cells from antral pig follicles: stimulates
[7]
  number of eggs recovered for in vitro maturation and fertilization: increased the number of eggs recovered
[8]
  DNA synthesis in granulosa cells from primary pig follicles: stimulates
[9]
  organ growth in mini-pigs: stimulate growth of heart, liver, and urinary tract

## mouse EGF: EGF originally purified from the male mouse submaxillary gland; used in the rabbit ovary cultures (NSYPGCPSSYDGYCLNGGVCMHIESLDSYTCNCVIGYSGDRCQTRDLRWWELR; Epidermal growth factor; UniProt P01132 977-1029, looked up)
[4]; normalized to 28S, controls in medium alone
  increase in amount of R55 mRNA as compared to controls: 3 fold
[10]
  cross-reactivity: < 1%

## rec-pEGF: recombinant porcine EGF expressed in a bacterial system, with 6X histidine tag and 19 vector amino acids
[1]; 600 μg/day for fourteen days from 21 d.pp., tissues collected at 10 weeks, versus control and untreated group
  increase in size of the ovaries: ~100%
[11]; 540 μg/day for fourteen days from 30 d.pp., necropsy fourteen days post-treatment
  greater population of growing follicles than in control or non-treated groups: 70%
[11]; 540 μg/day for fourteen days from 30 d.pp., versus control or non-treated groups
  size of ovarian follicles (in words): larger ovarian follicles
[11]; 540 μg/day for fourteen days from 30 d.pp., versus control group and group administered nothing
  number of ovarian follicles at 70 d.pp. (in words): significantly increased
[11]; [14]
  follicle diameter greater than that of the control group: over 100%
  follicle diameter greater than that of the group given nothing: over 70%
[12]
  Stimulation of fibroblast proliferation: comparable to that of purified mouse EGF
[13]
  effect on organ weights, body weights and general pathology: lack of effect
